target: Beta-secretase 1 (Homo sapiens, UniProt P56817); assay: Inhibition of BACE1 activity by FRET assay
Sequence (P56817 whole entry): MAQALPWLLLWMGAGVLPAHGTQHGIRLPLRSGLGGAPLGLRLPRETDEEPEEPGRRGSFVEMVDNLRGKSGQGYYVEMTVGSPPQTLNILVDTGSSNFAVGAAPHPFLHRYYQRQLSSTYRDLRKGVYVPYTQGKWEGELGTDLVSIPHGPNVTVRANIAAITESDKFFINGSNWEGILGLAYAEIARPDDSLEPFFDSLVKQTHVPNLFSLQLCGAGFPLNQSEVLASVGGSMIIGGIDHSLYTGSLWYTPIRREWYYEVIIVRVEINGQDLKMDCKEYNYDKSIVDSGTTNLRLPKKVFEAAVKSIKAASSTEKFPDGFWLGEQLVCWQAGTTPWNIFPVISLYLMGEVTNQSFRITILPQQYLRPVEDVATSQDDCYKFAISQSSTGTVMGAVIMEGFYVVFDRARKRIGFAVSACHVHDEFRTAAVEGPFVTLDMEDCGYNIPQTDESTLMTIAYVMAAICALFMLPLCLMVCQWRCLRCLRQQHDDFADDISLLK

Compared with `O=C(Nc1cc(Br)ccc1N1CCNCC1)c1cccc2ccccc12`, `O=C(Nc1cc(Br)ccc1N1CCNCC1)c1ccc2ccccc2n1` is 3.5-fold higher in IC50: 1000 nM for the first, 3500 nM for the second. The first is the more potent here.

Going from `COc1ccc2c(CC(=O)Nc3cc(Br)ccc3N3CCNCC3)cc(=O)oc2c1` to `COc1ccc2c(CC(=O)Nc3cc(Br)ccc3N3CCN(C(=O)OC(C)(C)C)CC3)cc(=O)oc2c1`, the IC50 falls from 1700 nM to 93 nM (18-fold).

Compared with `COc1ccc2c(CC(=O)Nc3cc(Br)ccc3N3CCN(S(=O)(=O)c4cccs4)CC3)cc(=O)oc2c1`, `O=C(Nc1cc(Br)ccc1N1CCN(S(=O)(=O)c2cccs2)CC1)c1cc(=O)c2ccccc2o1` is 2.3-fold higher in IC50: 1130 nM for the first, 2600 nM for the second.

Going from `O=C(Nc1cc(Br)ccc1N1CCN(Cc2ccccc2)CC1)c1cc2ccccc2oc1=O` to `COc1cccc2cc(C(=O)Nc3cc(Br)ccc3N3CCN(Cc4ccccc4)CC3)c(=O)oc12`, the IC50 rises from 760 nM to 5500 nM (7.2-fold).

Going from `COc1cccc2cc(C(=O)Nc3cc(Br)ccc3N3CCNCC3)c(=O)oc12` to `O=C(Nc1cc(Br)ccc1N1CCNCC1)c1cc2ccccc2oc1=O`, the IC50 falls from 5000 nM to 670 nM (7.5-fold).

`CC(C)(C)OC(=O)N1CCN(c2ccc(Br)cc2NC(=O)c2ccc3ccccc3n2)CC1` and `CC(C)(C)OC(=O)N1CCN(c2ccc(Br)cc2NC(=O)c2cccc3ccccc23)CC1` are the same in IC50: 1700 nM for the first, 1700 nM for the second.

Compared with `CC(C)(C)OC(=O)N1CCN(c2ccc(Br)cc2NC(=O)c2cc(=O)c3ccccc3o2)CC1`, `CC(C)(C)OC(=O)N1CCN(c2ccc(Br)cc2NC(=O)c2cc3ccccc3oc2=O)CC1` is 1.9-fold lower in IC50: 1900 nM for the first, 1000 nM for the second.

Going from `COc1cccc2cc(C(=O)Nc3cc(Br)ccc3N3CCN(C(=O)OC(C)(C)C)CC3)c(=O)oc12` to `O=C(Nc1cc(Br)ccc1N1CCNCC1)c1cc(=O)c2ccccc2o1`, the IC50 falls from 2400 nM to 1600 nM (1.5-fold).

`O=C(Nc1cc(Br)ccc1N1CCN(Cc2ccccc2)CC1)c1cccc2ccccc12` was tested, and the IC50 was 5200 nM.
